From patent EP0288048A2, “Benzo- and thieno-3,4-dihydropyridine derivates, processes for their preparation, and medicaments containing them” (BOEHRINGER INGELHEIM KG, priority 1987, dated 1988)

What follows are compounds tested on myocardiale Radiocalciumaufnahme (assay: Cardioprotective effect in conscious rats: inhibition of isoprenaline-induced myocardial radiocalcium uptake (method of Arndts)). Conditions: oral administration (perorale Wirkstoffabgabe), dose inhibiting by 50 % the myocardial radiocalcium uptake caused by 30 mg/kg s.c. Isoprenalin.
Format: in vivo, Ratten
Set-up: unit not given here
Excerpt: Insbesondere weisen diese Substanzen eine deutliche cardioprotektive Wirkung auf, die wie folgt bestimmt wurde: • Bekanntlich ist der myocardiale Ca(2+)-Gehalt ein Maß für die hypoxische bzw. durch toxische Catecholamindosen hervorgerufene Herzschädigung (Higgins et al., Mol. Cell. Cardiol. 10, 427-438, 1984; Nakanishi et al., Am. J. Physiol. 242, 437-449, 1982; Fleckenstein, A. Vorträge der Erlanger Physiol. Tagung 1970, Edit. Keidel, Springer Verlag Berlin, Heidelberg, New York, 1971). Umgekehrt ist die Inhibition der hypoxischen oder Isoprenalin-bedingten myocardialen Calciumaufnahme ein Maß für die cardioprotektive Effektivität von Calciumantagonisten (Fleckenstein, s.o.), von Calmodulininhibitoren (Higgins) und anderen Pharmaka, z.B. Betaadrenolytika (Arndts, Arzneimittelforschung 25, 1279-1284, 1975). Die cardioprotektive Wirkung wurde an wachen Ratten nach subcutaner oder peroraler Wirkstoffabgabe anhand der von Arndts (s.o.) beschriebenen Methode festgestellt und die Wirkungsstärke der Testsubstanzen als Hso-Wert angegeben. Dieser Wert entspricht der Dosis, die die durch eine Gabe von 30 mg/kg s.c. Isoprenalin bedingte myocardiale Radiocalciumaufnahme zu 50 % hemmt.
Compound COc1cc2c(cc1OC)C(CC(=O)NN(C)C)=NCC2 [B] has an H50-Wert of 2.26. CCCCC(C(=O)NCC(C)C)C1=NCCc2cc(OC)c(OC)cc21 (stereo not drawn) [C, α-Isobutylaminocarbonyl-1-pentyl-6,7-dimethoxy-3,4-dihydro-isochinolin] showed an H50-Wert of 1.34. CCCCC(C(=O)NC(C)C)C1=NCCc2cc(OC)c(OC)cc21 (stereo not drawn) [D] was tested, and the H50-Wert was 2.25. CCCCC(C(=O)NCCc1ccccn1)C1=NCCc2cc(OC)c(OC)cc21 (stereo not drawn) [E] showed an H50-Wert of 2.29. Work on CCCCC(C(=O)NC)C1=NCCc2cc(OC)c(OC)cc21 (stereo not drawn) [F] yielded an H50-Wert of 1.41. With CCCCC(C(=O)NCCOC)C1=NCCc2cc(OC)c(OC)cc21 (stereo not drawn) [G] the H50-Wert was 2.23. Work on COc1cc2c(cc1OC)C1(CCCC1)CNC2=CC1=NCC2(CCCC2)c2cc(OC)c(OC)cc21 [Verbindung A] yielded an H50-Wert of 1.25. CCCCC(C(=O)NCC(C)O)C1=NCCc2cc(OC)c(OC)cc21 (stereo not drawn) [Verbindung H] gave an H50-Wert of 2.15.

These compounds were tested on isolierten Rattenherzen (assay: Cardioprotective effect on isolated rat hearts under ischaemia followed by reperfusion (duration of arrhythmia phase)). Conditions: konz. 3,3 µg/ml; isolated rat heart, one hour ischaemia (flow 0.15 ml/min), then reperfusion.
Set-up: species or system Ratten
Excerpt: Wird ein längere Zeit unter ischämischen Bedingungen gehaltenes, isoliertes Herz wieder normal perfundiert, so tritt keine sofortige Normalisierung der Herzfunktion ein. Es findet sich vielmehr eine vorübergehende Periode, die durch Kontraktur und Arrhytmien gekennzeichnet ist. Diese Arrhythmiephase ist durch Veränderungen von Funktion und Struktur der Myocardzelle mit intrazellulärer Calciumüberladung bedingt (Hess u. Manson, J. Mol. Cell. Cardiol. 16, 969, 1984). Cardioprotektiv wirksame Verbindungen wie Verapamil und Diltiazem verringern die Calciumüberladung und verbessern das Kontraktionsverhalten bei Reperfusion (Watts et al. Am. J. Physiol. 238, H 909, 1980; Meno et al. Am. J. Physiol. 247, H 380, 1984). Die cardioprotektive Wirkung wurde an isolierten Rattenherzen unter Ischämie und anschließender Reperfusion untersucht. Unter Kontrollbedingungen findet sich nach einstündiger Ischämie (Fluß 0.15 ml,min) eine Periode unregelmäßiger Herztätigkeit von 10-15 Minuten. Infusion von cardioprotektiven Verbindungen bewirkt eine signifikante Verkürzung dieser Periode.
For COc1cc2c(cc1OC)C(C(CCc1ccccc1)C(=O)NCCc1ccncc1)=NCC2 (stereo not drawn) [L], the “Verkürzung der Arrhythmie-phase von 11-13 min auf” value was 5,0 min. In the case of COc1cc2c(cc1OC)C1(CCCC1)CNC2=CC1=NCC2(CCCC2)c2cc(OC)c(OC)cc21 [Verbindung A], the “Verkürzung der Arrhythmie-phase von 11-13 min auf” value is reported as 4,0 min.

Same assay, conditions: konz. 6,6 µg/ml; isolated rat heart, one hour ischaemia (flow 0.15 ml/min), then reperfusion
In the case of CCCCC(C(=O)NC(C)CCCC(C)C)C1=NCCc2cc(OC)c(OC)cc21 (stereo not drawn) [K], the “Verkürzung der Arrhythmie-phase von 11-13 min auf” value is reported as 3,1 min.

Same assay, conditions: konz. 13,3 µg/ml; isolated rat heart, one hour ischaemia (flow 0.15 ml/min), then reperfusion
COc1cc2c(cc1OC)C(CC(=O)N1CCOCC1)=NCC2 [Verbindung I] was tested, and the “Verkürzung der Arrhythmie-phase von 11-13 min auf” value was 3,5 min.
